Measurements reported in ChEMBL document CHEMBL1909046, “DrugMatrix in vitro pharmacology data”.

Tests used:
[1] = molecular target: Protein phosphatase 3 catalytic subunit alpha (Homo sapiens, UniProt Q08209); parameters: species or system Escherichia coli;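 note: inhibition of calcineurin (PP2B) enzyme activity, measured with DiFMUP as the substrate; in other assays of this panel Not Active means under 50% inhibition at 10 µM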
[2] = molecular target: T1, Neuropeptide Y receptor type 1 (Homo sapiens, UniProt P25929); type: cell membranes, Membrane; settings: sk-n-mc; note: in other assays of this panel Not Active means under 50% inhibition at 10 µM
T1 sequence (P25929 whole entry): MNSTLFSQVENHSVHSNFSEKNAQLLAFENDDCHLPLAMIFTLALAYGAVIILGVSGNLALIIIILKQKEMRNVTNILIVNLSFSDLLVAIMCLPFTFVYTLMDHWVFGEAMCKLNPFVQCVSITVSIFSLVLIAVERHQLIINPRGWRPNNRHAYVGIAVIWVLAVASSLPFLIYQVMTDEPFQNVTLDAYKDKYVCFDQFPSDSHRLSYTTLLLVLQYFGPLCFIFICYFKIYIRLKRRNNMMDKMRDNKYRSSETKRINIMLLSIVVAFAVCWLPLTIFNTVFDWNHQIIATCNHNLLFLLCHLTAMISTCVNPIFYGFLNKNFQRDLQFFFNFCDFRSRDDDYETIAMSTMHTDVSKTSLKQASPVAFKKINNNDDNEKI

[3] = DRUGMATRIX: Serotonin (5-Hydroxytryptamine) 5-HT3 radioligand binding (ligand: [3H] GR-65630); type: cell membranes, Membrane; settings: hek293; Not Active = under 50% inhibition at 10 µM
[4] = molecular target: Platelet-activating factor receptor (Homo sapiens, UniProt P25105); type: tissue-based; note: in other assays of this panel Not Active means under 50% inhibition at 10 µM
Sequence of Platelet-activating factor receptor (P25105 whole entry): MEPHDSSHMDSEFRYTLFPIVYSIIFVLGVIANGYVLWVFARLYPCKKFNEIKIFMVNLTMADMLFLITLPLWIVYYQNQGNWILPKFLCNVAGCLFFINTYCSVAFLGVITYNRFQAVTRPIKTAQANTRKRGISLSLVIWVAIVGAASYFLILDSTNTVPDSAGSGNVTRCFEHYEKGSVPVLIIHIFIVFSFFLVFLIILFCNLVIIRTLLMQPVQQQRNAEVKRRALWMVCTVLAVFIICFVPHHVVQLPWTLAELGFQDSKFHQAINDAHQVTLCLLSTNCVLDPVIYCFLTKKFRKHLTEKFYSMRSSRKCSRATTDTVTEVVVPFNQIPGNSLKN

[5] = molecular target: T2, Cholecystokinin receptor type A (Homo sapiens, UniProt P32238); type: cell membranes, Membrane; settings: 1321-n1; note: in other assays of this panel Not Active means under 50% inhibition at 10 µM
T2 sequence (P32238 whole entry): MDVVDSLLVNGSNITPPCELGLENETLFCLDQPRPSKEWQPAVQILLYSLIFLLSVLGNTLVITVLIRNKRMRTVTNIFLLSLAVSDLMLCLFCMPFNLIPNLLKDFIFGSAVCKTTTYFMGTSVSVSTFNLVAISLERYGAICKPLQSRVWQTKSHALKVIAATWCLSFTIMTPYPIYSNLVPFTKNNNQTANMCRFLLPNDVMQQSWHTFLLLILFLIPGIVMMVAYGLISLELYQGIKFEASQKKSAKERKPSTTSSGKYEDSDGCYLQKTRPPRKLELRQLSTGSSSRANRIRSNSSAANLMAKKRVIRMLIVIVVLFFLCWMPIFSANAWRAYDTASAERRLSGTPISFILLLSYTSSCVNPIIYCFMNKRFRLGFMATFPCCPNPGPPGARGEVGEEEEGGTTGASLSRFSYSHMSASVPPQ

[6] = molecular target: T3, C-C chemokine receptor type 4 (Homo sapiens, UniProt P51679); type: cell membranes, Chem-1, Membrane; settings: chem-1; note: in other assays of this panel Not Active means under 50% inhibition at 10 µM
T3 sequence (P51679 whole entry): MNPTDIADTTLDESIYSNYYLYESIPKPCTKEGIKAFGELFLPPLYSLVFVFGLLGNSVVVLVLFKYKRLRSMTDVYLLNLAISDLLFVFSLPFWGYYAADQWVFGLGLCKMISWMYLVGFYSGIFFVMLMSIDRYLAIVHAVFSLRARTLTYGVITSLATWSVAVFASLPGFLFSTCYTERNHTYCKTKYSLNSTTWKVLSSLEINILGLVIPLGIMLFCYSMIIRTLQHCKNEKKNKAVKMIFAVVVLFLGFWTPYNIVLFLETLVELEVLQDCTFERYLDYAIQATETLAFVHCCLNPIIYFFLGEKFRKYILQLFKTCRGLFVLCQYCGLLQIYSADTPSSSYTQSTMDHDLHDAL

[7] = DRUGMATRIX: beta-Lactamase enzyme inhibition (substrate: Nitrocefin); parameters: species or system Bacillus cereus; settings: Not Active = under 50% inhibition at 10 µM
[8] = molecular target: T4, Adenosine receptor A1 (Homo sapiens, UniProt P30542); type: cell membranes, CHO, Membrane; settings: cho
T4 sequence (P30542 whole entry): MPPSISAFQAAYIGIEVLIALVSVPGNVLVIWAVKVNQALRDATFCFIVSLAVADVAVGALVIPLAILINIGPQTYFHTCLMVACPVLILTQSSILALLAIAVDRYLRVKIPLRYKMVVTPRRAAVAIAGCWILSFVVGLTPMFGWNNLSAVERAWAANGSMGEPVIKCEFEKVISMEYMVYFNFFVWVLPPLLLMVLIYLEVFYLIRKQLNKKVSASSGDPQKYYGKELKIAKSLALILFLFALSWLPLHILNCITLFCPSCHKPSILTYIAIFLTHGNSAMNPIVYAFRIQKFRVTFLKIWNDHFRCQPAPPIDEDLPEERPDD

COc1cc(NC(C)CCCN)c2ncccc2c1 (centres undefined) [PRIMAQUINE]
Not Active: IC50 [1] | IC50 [2] | IC50 [3] | Ki [3] | IC50 [4] | IC50 [5] | IC50 [6] | IC50 [7] | Ki [7] | IC50 [8]

CC(CN1c2ccccc2Sc2ccccc21)N(C)C (centres undefined) [PROMETHAZINE]
Not Active: IC50 [1] | IC50 [2] | IC50 [3] | Ki [3] | IC50 [4] | IC50 [5] | IC50 [6] | IC50 [7] | Ki [7] | IC50 [8]

COc1ccc(C[C@H](N)C(=O)N[C@H]2[C@@H](O)[C@H](n3cnc4c(N(C)C)ncnc43)O[C@@H]2CO)cc1 [PUROMYCIN]
Not Active: IC50 [1] | IC50 [2] | IC50 [3] | Ki [3] | IC50 [4] | IC50 [5] | IC50 [6] | IC50 [7] | Ki [7] | IC50 [8]

CARBOXYMETHYLCELLULOSE
Not Active: IC50 [1] | Ki [1] | IC50 [2] | Ki [2] | IC50 [3] | Ki [3] | IC50 [4] | Ki [4] | IC50 [5] | Ki [5] | IC50 [6] | Ki [6] | IC50 [7] | Ki [7] | IC50 [8] | Ki [8]

CHROMIC CHLORIDE
Not Active: IC50 [1] | Ki [1] | IC50 [2] | Ki [2] | IC50 [3] | Ki [3] | IC50 [4] | Ki [4] | IC50 [5] | Ki [5] | IC50 [6] | Ki [6] | IC50 [7] | Ki [7] | IC50 [8] | Ki [8]

COPPER(II) OXIDE
Not Active: IC50 [1] | Ki [1] | IC50 [2] | Ki [2] | IC50 [3] | Ki [3] | IC50 [4] | Ki [4] | IC50 [5] | Ki [5] | IC50 [6] | Ki [6] | IC50 [7] | Ki [7] | IC50 [8] | Ki [8]

POVIDONE
Not Active: IC50 [1] | Ki [1] | IC50 [2] | Ki [2] | IC50 [3] | Ki [3] | IC50 [4] | Ki [4] | IC50 [5] | Ki [5] | IC50 [6] | Ki [6] | IC50 [7] | Ki [7] | IC50 [8] | Ki [8]
